Measurements from patent US20230372498A1, “PLK1 SELECTIVE DEGRADATION INDUCING COMPOUND” (UPPTHERA, priority 2020, published 2023).

Target: T1, PLK1 (Homo sapiens, UniProt P53350)
T1 construct: endogenous in cells; host or cells: HeLa
Assay: PLK1 protein degradation in HeLa cells, Western blotting (PLK1/GAPDH ratio)
Type: cell-based
Conditions: 6 hours compound incubation; for DC50: measured only if the grade of Dmax is A or B; for Dmax: thymidine block and release, 10 points three-fold from 3 μM, PLK1 to GAPDH ratio, read-out: Dmax
Summary of the method: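 Thymidine-synchronised HeLa cells (2 mM, 24 h) released 4 h into complete medium, then treated 6 h with compound in 10-point 3-fold dilutions from 3 μM. RIPA lysates (15 μg protein) run on SDS-PAGE; PLK1 Western blot normalised to GAPDH.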

T1 sequence (P53350 whole entry): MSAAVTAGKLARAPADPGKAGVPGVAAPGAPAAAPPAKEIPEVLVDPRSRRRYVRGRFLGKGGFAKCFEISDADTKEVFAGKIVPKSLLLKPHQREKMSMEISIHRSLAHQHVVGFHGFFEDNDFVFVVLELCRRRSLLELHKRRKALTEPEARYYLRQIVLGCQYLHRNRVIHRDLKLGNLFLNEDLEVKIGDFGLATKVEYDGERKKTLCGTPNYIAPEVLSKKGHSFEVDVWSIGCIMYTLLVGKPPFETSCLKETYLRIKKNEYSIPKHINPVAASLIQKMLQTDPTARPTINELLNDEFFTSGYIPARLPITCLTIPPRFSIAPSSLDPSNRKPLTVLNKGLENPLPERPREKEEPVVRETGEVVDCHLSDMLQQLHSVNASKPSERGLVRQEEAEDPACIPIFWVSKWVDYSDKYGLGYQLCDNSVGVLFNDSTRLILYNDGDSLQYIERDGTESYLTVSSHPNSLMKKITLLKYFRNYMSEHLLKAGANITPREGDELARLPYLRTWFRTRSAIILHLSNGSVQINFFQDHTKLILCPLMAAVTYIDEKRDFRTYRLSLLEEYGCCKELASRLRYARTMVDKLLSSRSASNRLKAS

DC50 [nM] | Dmax [%] | Compound
≤ 500 | 60 to 80 | COc1cc(C(=O)NC2CCN(C[C@@H]3C[C@@H]3CNc3cccc4c3C(=O)N(C3CCC(=O)NC3=O)C4=O)CC2)c(F)cc1Nc1ncc2c(n1)N(C1CCCC1)CC(F)(F)C(=O)N2C (stereo partly drawn) [Compound 48, 4-((9-cyclopentyl-7,7-difluoro-5-methyl-6-oxo-6,7,8,9-tetrahydro-5H-pyrimido[4,5-b][1,4]diazepin-2-yl)amino)-N-(1-(((1R,2S)-2-(((2-(2,6-dioxopiperidin-3-yl)-1,3-dioxoisoindolin-4-yl)amino)methyl)cyclopropyl)methyl)piperidin-4-yl)-2-fluoro-5-methoxybenzamide]
≤ 500 | 60 to 80 | COc1cc(C(=O)NC2CCN(CCOCCN(C)CCNc3cccc4c3C(=O)N(C3CCC(=O)NC3=O)C4=O)CC2)c(F)cc1Nc1ncc2c(n1)N(C1CCCC1)CC(F)(F)C(=O)N2C (stereo not shown) [Compound 49, 4-((9-cyclopentyl-7,7-difluoro-5-methyl-6-oxo-6,7,8,9-tetrahydro-5H-pyrimido[4,5-b][1,4]diazepin-2-yl)amino)-N-(1-(2-(2-((2-((2-(2,6-dioxopiperidin-3-yl)-1,3-dioxoisoindolin-4-yl)amino)ethyl)(methyl)amino)ethoxy)ethyl)piperidin-4-yl)-2-fluoro-5-methoxybenzamide]
≤ 50 | ≥ 80 | COc1cc(C(=O)NC2CCN(CCOCCOCCNc3ccc4c(c3)C(=O)N(C3CCC(=O)NC3=O)C4=O)CC2)c(F)cc1Nc1ncc2c(n1)N(C1CCCC1)CC(F)(F)C(=O)N2C (stereo not shown) [Compound 50, 4-((9-cyclopentyl-7,7-difluoro-5-methyl-6-oxo-6,7,8,9-tetrahydro-5H-pyrimido[4,5-b][1,4]diazepin-2-yl)amino)-N-(1-(2-(2-(2-((2-(2,6-dioxopiperidin-3-yl)-1,3-dioxoisoindolin-5-yl)amino)ethoxy)ethoxy)ethyl)piperidin-4-yl)-2-fluoro-5-methoxybenzamide]
≤ 50 | ≥ 80 | COc1cc(C(=O)NC2CCN(CCOCCOCCOCCOCCNc3ccc4c(c3)C(=O)N(C3CCC(=O)NC3=O)C4=O)CC2)c(F)cc1Nc1ncc2c(n1)N(C1CCCC1)CC(F)(F)C(=O)N2C (stereo not shown) [Compound 51, 4-((9-cyclopentyl-7,7-difluoro-5-methyl-6-oxo-6,7,8,9-tetrahydro-5H-pyrimido[4,5-b][1,4]diazepin-2-yl)amino)-N-(1-(14-((2-(2,6-dioxopiperidin-3-yl)-1,3-dioxoisoindolin-5-yl)amino)-3,6,9,12-tetraoxatetradecyl)piperidin-4-yl)-2-fluoro-5-methoxybenzamide]
≤ 50 | ≥ 80 | COc1cc(C(=O)NC2CCN(CCOCCOCCOCCOCC#Cc3cccc4c3C(=O)N(C3CCC(=O)NC3=O)C4=O)CC2)c(F)cc1Nc1ncc2c(n1)N(C1CCCC1)CC(F)(F)C(=O)N2C (stereo not shown) [Compound 52, 4-((9-cyclopentyl-7,7-difluoro-5-methyl-6-oxo-6,7,8,9-tetrahydro-5H-pyrimido[4,5-b][1,4]diazepin-2-yl)amino)-N-(1-(15-(2-(2,6-dioxopiperidin-3-yl)-1,3-dioxoisoindolin-4-yl)-3,6,9,12-tetraoxapentadec-14-yn-1-yl)piperidin-4-yl)-2-fluoro-5-methoxybenzamide]
≤ 50 | ≥ 80 | COc1cc(C(=O)NC2CCN(CCOCCOCCOCCOCCCc3cccc4c3C(=O)N(C3CCC(=O)NC3=O)C4=O)CC2)c(F)cc1Nc1ncc2c(n1)N(C1CCCC1)CC(F)(F)C(=O)N2C (stereo not shown) [Compound 53, 4-((9-cyclopentyl-7,7-difluoro-5-methyl-6-oxo-6,7,8,9-tetrahydro-5H-pyrimido[4,5-b][1,4]diazepin-2-yl)amino)-N-(1-(15-(2-(2,6-dioxopiperidin-3-yl)-1,3-dioxoisoindolin-4-yl)-3,6,9,12-tetraoxapentadecyl)piperidin-4-yl)-2-fluoro-5-methoxybenzamide]
≤ 500 | 60 to 80 | COc1cc(C(=O)NC2CCN(CCOCCOCC#Cc3cccc4c3C(=O)N(C3CCC(=O)NC3=O)C4=O)CC2)c(F)cc1Nc1ncc2c(n1)N(C1CCCC1)CC(F)(F)C(=O)N2C (stereo not shown) [Compound 54, 4-((9-cyclopentyl-7,7-difluoro-5-methyl-6-oxo-6,7,8,9-tetrahydro-5H-pyrimido[4,5-b][1,4]diazepin-2-yl)amino)-N-(1-(2-(2-((3-(2-(2,6-dioxopiperidin-3-yl)-1,3-dioxoisoindolin-4-yl)prop-2-yn-1-yl)oxy)ethoxy)ethyl)piperidin-4-yl)-2-fluoro-5-methoxybenzamide]
≤ 500 | 60 to 80 | COc1cc(C(=O)NC2CCN(CCOCCOCCCc3cccc4c3C(=O)N(C3CCC(=O)NC3=O)C4=O)CC2)c(F)cc1Nc1ncc2c(n1)N(C1CCCC1)CC(F)(F)C(=O)N2C (stereo not shown) [Compound 55, 4-((9-cyclopentyl-7,7-difluoro-5-methyl-6-oxo-6,7,8,9-tetrahydro-5H-pyrimido[4,5-b][1,4]diazepin-2-yl)amino)-N-(1-(2-(2-(3-(2-(2,6-dioxopiperidin-3-yl)-1,3-dioxoisoindolin-4-yl)propoxy)ethoxy)ethyl)piperidin-4-yl)-2-fluoro-5-methoxybenzamide]
≤ 500 | 60 to 80 | COc1cc(C(=O)NC2CCN(CCOCCNC(=O)COc3cccc4c3C(=O)N(C3CCC(=O)NC3=O)C4=O)CC2)c(F)cc1Nc1ncc2c(n1)N(C1CCCC1)CC(F)(F)C(=O)N2C (stereo not shown) [Compound 56, 4-((9-cyclopentyl-7,7-difluoro-5-methyl-6-oxo-6,7,8,9-tetrahydro-5H-pyrimido[4,5-b][1,4]diazepin-2-yl)amino)-N-(1-(2-(2-(2-((2-(2,6-dioxopiperidin-3-yl)-1,3-dioxoisoindolin-4-yl)oxy)acetamido)ethoxy)ethyl)piperidin-4-yl)-2-fluoro-5-methoxybenzamide]
≤ 500 | 60 to 80 | COc1cc(C(=O)NC2CCN(CCOCCOCCOCCNC(=O)COc3cccc4c3C(=O)N(C3CCC(=O)NC3=O)C4=O)CC2)c(F)cc1Nc1ncc2c(n1)N(C1CCCC1)CC(F)(F)C(=O)N2C (stereo not shown) [Compound 57, 4-((9-cyclopentyl-7,7-difluoro-5-methyl-6-oxo-6,7,8,9-tetrahydro-5H-pyrimido[4,5-b][1,4]diazepin-2-yl)amino)-N-(1-(1-((2-(2,6-dioxopiperidin-3-yl)-1,3-dioxoisoindolin-4-yl)oxy)-2-oxo-6,9,12-trioxa-3-azatetradecan-14-yl)piperidin-4-yl)-2-fluoro-5-methoxybenzamide]
 | < 60 | COc1cc(C(=O)NC2CCN(CCOCCOCCOCCOCCOCCOCCOCCNC(=O)COc3cccc4c3C(=O)N(C3CCC(=O)NC3=O)C4=O)CC2)c(F)cc1Nc1ncc2c(n1)N(C1CCCC1)CC(F)(F)C(=O)N2C (stereo not shown) [Compound 58, 4-((9-cyclopentyl-7,7-difluoro-5-methyl-6-oxo-6,7,8,9-tetrahydro-5H-pyrimido[4,5-b][1,4]diazepin-2-yl)amino)-N-(1-(1-((2-(2,6-dioxopiperidin-3-yl)-1,3-dioxoisoindolin-4-yl)oxy)-2-oxo-6,9,12,15,18,21,24-heptaoxa-3-azahexacosan-26-yl)piperidin-4-yl)-2-fluoro-5-methoxybenzamide]
 | < 60 | COc1cc(C(=O)NC2CCN(CCCCCNC(=O)COc3cccc4c3C(=O)N(C3CCC(=O)NC3=O)C4=O)CC2)c(F)cc1Nc1ncc2c(n1)N(C1CCCC1)CC(F)(F)C(=O)N2C (stereo not shown) [Compound 59, 4-((9-cyclopentyl-7,7-difluoro-5-methyl-6-oxo-6,7,8,9-tetrahydro-5H-pyrimido[4,5-b][1,4]diazepin-2-yl)amino)-N-(1-(5-(2-((2-(2,6-dioxopiperidin-3-yl)-1,3-dioxoisoindolin-4-yl)oxy)acetamido)pentyl)piperidin-4-yl)-2-fluoro-5-methoxybenzamide]
≤ 50 | ≥ 80 | COc1cc(C(=O)NC2CCN(CCC(=O)NCCCCCCCNC(=O)COc3cccc4c3C(=O)N(C3CCC(=O)NC3=O)C4=O)CC2)c(F)cc1Nc1ncc2c(n1)N(C1CCCC1)CC(F)(F)C(=O)N2C (stereo not shown) [Compound 60, 4-((9-cyclopentyl-7,7-difluoro-5-methyl-6-oxo-6,7,8,9-tetrahydro-5H-pyrimido[4,5-b][1,4]diazepin-2-yl)amino)-N-(1-(3-((7-(2-((2-(2,6-dioxopiperidin-3-yl)-1,3-dioxoisoindolin-4-yl)oxy)acetamido)heptyl)amino)-3-oxopropyl)piperidin-4-yl)-2-fluoro-5-methoxybenzamide]
≤ 50 | 60 to 80 | COc1cc(C(=O)NC2CCN(Cc3cccc(CNC(=O)COc4cccc5c4C(=O)N(C4CCC(=O)NC4=O)C5=O)c3)CC2)c(F)cc1Nc1ncc2c(n1)N(C1CCCC1)CC(F)(F)C(=O)N2C (stereo not shown) [Compound 61, 4-((9-cyclopentyl-7,7-difluoro-5-methyl-6-oxo-6,7,8,9-tetrahydro-5H-pyrimido[4,5-b][1,4]diazepin-2-yl)amino)-N-(1-(3-((2-((2-(2,6-dioxopiperidin-3-yl)-1,3-dioxoisoindolin-4-yl)oxy)acetamido)methyl)benzyl)piperidin-4-yl)-2-fluoro-5-methoxybenzamide]
≤ 50 | 60 to 80 | COc1cc(C(=O)NC2CCN(Cc3cncc(CNC(=O)COc4cccc5c4C(=O)N(C4CCC(=O)NC4=O)C5=O)c3)CC2)c(F)cc1Nc1ncc2c(n1)N(C1CCCC1)CC(F)(F)C(=O)N2C (stereo not shown) [Compound 62, 4-((9-cyclopentyl-7,7-difluoro-5-methyl-6-oxo-6,7,8,9-tetrahydro-5H-pyrimido[4,5-b][1,4]diazepin-2-yl)amino)-N-(1-((5-((2-((2-(2,6-dioxopiperidin-3-yl)-1,3-dioxoisoindolin-4-yl)oxy)acetamido)methyl)pyridin-3-yl)methyl)piperidin-4-yl)-2-fluoro-5-methoxybenzamide]
